The text below walks through data of patent US20230312556A1, “ARYLAMIDE COMPOUND, PHARMACEUTICAL COMPOSITION COMPRISING SAME, AND PREPARATION METHOD THEREFOR AND USE THEREOF” (SICHUAN KELUN-BIOTECH BIOPHARMACEUTICAL CO., LTD., priority 2020, published 2023).

The test system of data set [1] is human melanoma cell A375 (BRAF-V600E mutation). The experiment in a line: Cancer cell proliferation inhibition assay, A375. It is filed as cell-based. The following applies: A-375, 72 h incubation, Cell Titer Glo. The source says: (§1) The inhibitory effects of the compounds of the present invention on cancer cell proliferation were further evaluated by testing the effects of the compounds of the present invention on the growth of cancer cells.
(§2) In this example, human melanoma cell A375 (BRAF-V600E mutation, purchased from the Cell Bank of the Chinese Academy of Sciences) and human hepatocellular carcinoma cell HepG2 (NRAS-Q61K mutation, purchased from ATCC, USA) were employed.
(§3) In this example, the test compounds at various concentrations (100000 nM, 30000 nM, 10000 nM, 3000 nM, 1000 nM, 300 nM, 100 nM, 30 nM, 10 nM) were added to the above cells, and the incubation was performed for 72 h. The inhibitory activity of the compounds was tested by measuring ATP in living cells using the Cell Titer Glo Kit (Promega).
(§4) The IC50 values of the compounds of the present invention for each tested cell were determined, and the test results are as follows: […]

Data set [2] concerns the target wild-type BRAF enzyme (Homo sapiens (Human), UniProt P15056). Kind of data set: RAF inhibition assay (TB-PMAP2K1 kit), wild-type BRAF. It is filed as biochemical. The following applies: FLUORESCEIN-MAP2K1 substrate, 60 min reaction. As to the method: Assay protocol: the inhibitory effects of the compounds of the present invention on the wild-type BRAF enzyme, mutant CRAF enzyme (RAF1 Y340D and Y341D) and mutant BRAF enzyme (BRAF-V600E) activity were determined according to the instructions of the TB-PMAP2K1 (PSER217/221) kit (ThermoFisher). Different RAF enzymes and substrates (FLUORESCEIN-MAP2K1) were pre-incubated with test compounds at various concentrations at room temperature for 15 min, and then the adenosine triphosphate (ATP) was added to initiate the reaction. After incubation at room temperature for 60 min, EDTA and Tb-labeled anti-pMAP2K1 [pS217/221] antibody solutions were added, and incubation was performed at room temperature for 60 min before the detection of the fluorescence values of the compounds in each group. With the vehicle group (DMSO) as the negative control and the buffer group (without RAF enzyme) as the blank control, the relative inhibitory activity percentage (i.e., the inhibition rate) of a compound at different concentrations was calculated according to the following formula:
Relative inhibitory activity percentage=1−(Compound group at various concentrations−blank control)/(negative control−blank control)*100%
The relative inhibitory activity percentages of the compounds at different concentrations were plotted against the compound concentrations, the curve was fitted according to a four-parameter model, and the IC50 value was calculated according to the following formula:
y=min+(max−min)/(1+(x/IC50)^(−Hillslope))
wherein y is the relative inhibitory activity percentage, max and min are respectively the maximum and minimum values of the fitted curve, x is the logarithm concentration of the compound, and Hillslope is the slope of the curve.

The nature of data set [3]: Pharmacokinetic test in Balb/c mice. It is filed as in vivo. As to the method: The compounds were administered to female Balb/c mice by gavage (PO) to investigate the pharmacokinetic profile.
Compound 1 of the present invention and HM95573 (prepared according to Example 116 in CN104039798B) were administered via PO; the administration dosage was 10 mg/kg, and the administration vehicle was a 20% aqueous solution of hydroxypropyl-β-cyclodextrin. Blood samples were collected before the administration (0 h) and at 0.25, 0.5, 1, 2, 4, 6, 8, 24, 48, and 72 h after the administration; 50-70 μL of blood was drawn from the orbit and spotted on Whatman 903 card, which was air-dried at room temperature for testing. After the testing, the samples were placed in a sealed dry box and stored at −80° C. (DBS samples). The DBS samples were punched with a 6 mm punch, then 80 μL of 50% acetonitrile-water was added and shaken (800 rpm, 10 min), followed by sonication for 10 min, then 350 μL of acetonitrile containing internal standard was added and shaken (700 rpm, 10 min). After sonication for 10 min, the samples were centrifuged at 4000 rpm and 4° C. for 10 min, and the supernatant was collected for LC-MS/MS analysis. The pharmacokinetic parameters were calculated using the WinNonlin 6.3 software and employing a non-compartmental model, and the results are shown in Table 6.

Data set [4] can be described thus: Pharmacokinetic test in Beagle dogs. It is filed as in vivo. As to the method:
The compounds were administered to male Beagle dogs by gavage (PO) to investigate the pharmacokinetic profile.
Compound 1 of the present invention and HM95573 were administered via PO; the administration dosage was 2.5 mg/kg, and the solvent was a 20% aqueous solution of hydroxypropyl-β-cyclodextrin. Blood samples were collected before the administration (0 h) and at 0.25, 0.5, 1, 2, 4, 6, 8, 24, 48, and 72 hours after the administration, and 1 mL blood was collected from the limbs vein and placed in a K2-EDTA anticoagulation tube. After centrifugation at 4000 rpm for 5 min (4° C.), the plasma was separated and stored at −80° C. for testing. The plasma samples were processed by precipitating proteins, and then subjected to LC-MS/MS analysis. The pharmacokinetic parameters were calculated using the WinNonlin 6.3 software and employing a non-compartmental model, and the results are shown in Table 7.

For data set [5], the system named is human hepatocellular carcinoma cell HepG2 (NRAS-Q61K mutation). Kind of data set: Cancer cell proliferation inhibition assay, HepG2. It is filed as cell-based. To be noted: 72 h incubation, Cell Titer Glo.
Excerpt: as §1, §2, §3, §4

Setting [6] is: mouse, whole blood (dried blood spots), female Balb/c mice, PO, 10 mg/kg, DBS samples.
The mark [7] stands for this setting: dog, male Beagle dogs, PO, 2.5 mg/kg, plasma.
Setting [8] is: female Balb/c mice, PO, 10 mg/kg, DBS samples.
Where [9] appears, read: male Beagle dogs, PO, 2.5 mg/kg, plasma.

wild-type BRAF enzyme, sequence (P15056 whole entry): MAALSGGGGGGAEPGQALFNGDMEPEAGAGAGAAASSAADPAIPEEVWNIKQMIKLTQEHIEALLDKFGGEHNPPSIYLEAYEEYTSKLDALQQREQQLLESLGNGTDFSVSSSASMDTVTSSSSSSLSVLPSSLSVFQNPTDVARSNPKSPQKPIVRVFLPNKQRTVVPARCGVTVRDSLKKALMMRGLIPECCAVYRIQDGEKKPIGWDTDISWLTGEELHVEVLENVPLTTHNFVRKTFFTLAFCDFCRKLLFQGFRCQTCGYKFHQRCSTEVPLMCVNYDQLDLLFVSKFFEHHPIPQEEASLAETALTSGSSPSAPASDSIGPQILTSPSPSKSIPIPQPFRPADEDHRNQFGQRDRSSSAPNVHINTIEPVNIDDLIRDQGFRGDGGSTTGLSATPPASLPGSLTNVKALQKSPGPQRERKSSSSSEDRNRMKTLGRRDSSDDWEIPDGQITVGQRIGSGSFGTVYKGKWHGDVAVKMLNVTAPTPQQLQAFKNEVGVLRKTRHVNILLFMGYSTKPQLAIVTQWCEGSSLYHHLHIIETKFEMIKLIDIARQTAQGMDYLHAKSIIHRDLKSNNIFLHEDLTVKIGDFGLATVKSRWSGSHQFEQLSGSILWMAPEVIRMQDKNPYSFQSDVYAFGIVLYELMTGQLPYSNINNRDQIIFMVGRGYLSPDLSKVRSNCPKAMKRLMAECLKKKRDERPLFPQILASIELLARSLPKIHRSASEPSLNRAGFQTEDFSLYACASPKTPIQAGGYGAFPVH

Turning to `Cc1ccc2c(Nc3cccc(Cl)c3F)nccc2c1NC(=O)c1cccc2c(N)ncnc12` [Compound 1, 4-amino-N-(1-((3-chloro-2-fluorophenyl)amino)-6-methylisoquinolin-5-yl)quinazoline-8-carboxamide], the 50% inhibitory concentration (IC50) (commonly the point on the concentration scale where inhibition reaches its midpoint) in data set [1] is 29.3 ± 2.3 nM; in data set [2], 18.7 ± 2.71 nM; in data set [5] it was 71.3 ± 5.5 nM. Also, the “Conclusion on pharmacokinetics in mice” value in data set [3] (mice after PO administration) was “Conclusion: compound 1 of the present invention has a high maximum plasma concentration and a high exposure in mice after PO administration”. Besides, the AUC(0-t) (usually the area under the concentration-time curve up to a stated or last time point) in data set [3] (setting [6]) was 172000 ± 18300 ng·h/mL; in data set [4] (setting [7]) it was 31000 ± 4240 ng·h/mL. The half-life – broadly, how long it takes for the measured level to halve – is 8.33 ± 0.95 h in data set [3] (setting [6]) and 15.4 ± 4.1 h in data set [4] (setting [7]). Besides, the Cmax (in general, the maximum level reached in the sampled fluid or tissue) in data set [3] (mouse, whole blood (dried blood spots), female Balb/c mice, PO, 10 mg/kg, DBS samples, read-out: Cmax) was 8240 ± 586 ng/mL; in data set [4] (dog, male Beagle dogs, PO, 2.5 mg/kg, plasma, read-out: Cmax), 1800 ± 127 ng/mL. Further, the Tmax (usually the time from dosing to the highest level) in data set [3] (mouse, whole blood (dried blood spots), female Balb/c mice, PO, 10 mg/kg, DBS samples, read-out: Tmax) was found to be 1.67 ± 0.58 h; in data set [4] (dog, male Beagle dogs, PO, 2.5 mg/kg, plasma, read-out: Tmax), 1 h. Moreover, the “Conclusion on pharmacokinetics in dogs” value in data set [4] (dogs after PO administration) was “Conclusion: Compound 1 of the present invention has a high maximum plasma concentration, high exposure, long half-life and good overall PK properties in dogs after PO administration”.
With `Cc1ccc2c(Cc3cccc(C(F)(F)F)c3)nccc2c1NC(=O)c1csc2c(N)ncnc12` [Compound 19, 4-amino-N-(6-methyl-1-(3-(trifluoromethyl)benzyl)isoquinolin-5-yl)thieno[3,2-d]pyrimidine-7-carboxamide], the IC50 in data set [1] turned out to be 163 ± 21.3 nM; in data set [2] it was 21.6 ± 4.85 nM; in data set [5] it was 136 ± 21.3 nM.
On to `Cc1ccc2c(Nc3cc(Cl)ccc3F)nccc2c1NC(=O)c1cccc2c(N)ncnc12` [Compound 73, 4-amino-N-(1-((5-chloro-2-fluorophenyl)amino)-6-methylisoquinolin-5-yl)quinazoline-8-carboxamide], for which the figures for the concentration for half-maximal inhibition (IC50) in data set [1], in data set [2] and in data set [5] were 109 ± 22.8 nM, 36.2 ± 16.5 nM and 59.6 ± 2.2 nM, respectively.
Consider `Cc1ccc2c(Nc3cccc(C(F)(F)F)c3)nccc2c1NC(=O)c1cnc2c(N)ncnn12` [Compound 43, 4-amino-N-(6-methyl-1-((3-(trifluoromethyl)phenyl)amino)isoquinolin-5-yl)imidazo[2,1-f][1,2,4]triazine-7-carboxamide], for which the IC50 in data set [1] came to 61.7 ± 3 nM; in data set [2], 20.7 ± 5.71 nM; in data set [5] it was 32.9 ± 3.3 nM.
For `Cc1ccc2c(Nc3cc(S(C)(=O)=O)ccc3F)nccc2c1NC(=O)c1cccc2c(N)ncnc12` [Compound 89, 4-amino-N-(1-((2-fluoro-5-(methylsulfonyl)phenyl)amino)-6-methylisoquinolin-5-yl)quinazoline-8-carboxamide], the values for the IC50 in data set [1], in data set [2] and in data set [5] were 111 ± 5.2 nM, 20.4 ± 1.3 nM and 106 ± 25.2 nM, respectively.
For `Cc1ccc2c(Nc3ccc(Cl)cc3F)nccc2c1NC(=O)c1cccc2c(N)ncnc12` [Compound 41, 4-amino-N-(1-((4-chloro-2-fluorophenyl)amino)-6-methylisoquinolin-5-yl)quinazoline-8-carboxamide], in that order: 22.2 ± 1.86 nM, 31.8 ± 5.36 nM and 55.6 ± 4.8 nM.
In the case of `COc1ccc(Nc2nccc3c(NC(=O)c4cccc5c(N)ncnc45)c(C)ccc23)c(F)c1` [Compound 60, 4-amino-N-(1-((2-fluoro-4-methoxyphenyl)amino)-6-methylisoquinolin-5-yl)quinazoline-8-carboxamide], the IC50 in data set [1] was 28 ± 3.12 nM; in data set [2], 8.48 ± 0.9 nM; in data set [5], 34.1 ± 4.32 nM.
Take `Cc1ccc2c(Nc3cccc(Cl)c3F)nccc2c1NC(=O)c1csc2c(N)ncnc12` [HM95573, reference compound]: in data set [3] (setting [8]), the AUClast came out at 110760 ± 9636 ng·h/mL, the Cmax came to 4710 ± 806 ng/mL, the T1/2 was 9.57 ± 0.58 h and the Tmax is given as 1.67 ± 0.58 h. Moreover, in data set [4] (setting [9]), the AUClast is 13080 ± 6254 ng·h/mL, the highest concentration (Cmax) is listed as 989 ± 411 ng/mL, the T1/2 was determined as 8.43 ± 1.76 h and the Tmax stood at 1.33 ± 0.58 h.
For the compound `Cc1ccc2c(Nc3ccc(F)cc3F)nccc2c1NC(=O)c1cc(F)cc2c(N)ncnc12` [Compound 85, 4-amino-N-(1-((2,4-difluorophenyl)amino)-6-methylisoquinolin-5-yl)-6-fluoroquinazoline-8-carboxamide], the figures for the concentration for half-maximal inhibition (IC50) in data set [1], in data set [2] and in data set [5] were 148 ± 3.8 nM, 12.9 ± 0.9 nM and 40.1 ± 6.97 nM, respectively.
Regarding `Nc1ncnc2c(C(=O)Nc3c(F)ccc4c(Nc5cccc(Cl)c5F)nccc34)cccc12` [Compound 92, 4-amino-N-(1-((3-chloro-2-fluorophenyl)amino)-6-fluoroisoquinolin-5-yl)quinazoline-8-carboxamide], the IC50 was determined as 128 ± 8 nM in data set [1], 21.8 ± 3.89 nM in data set [2] and 49.8 ± 4.3 nM in data set [5].
